Test results: patent publication US20130018062A1, “Pain therapy with metabolism blocked antifolates” (priority 2011, published 2013)

How the values were obtained:
[1] = Laboratory values (toxicity) of Rheumatoid Arthritis patients on M-Trex; type: in vivo, human; details: M-Trex 7.5 mg per day; for CREATININE / GLUCOSE / SGOT / ALK. PHOSPHAT / SGTP / HEMOGLOB: RA patients; for ALK. PHOSPHAT / SGTP: in U/L (unit assumed); for HEMOGLOB: in g/dL (unit assumed)
[2] = test system: Human HCT-8 Colon Xenograft; assay: Antitumor activity in nude mice bearing human HCT-8 colon xenograft (Example-4); type: in vivo; details: i.v. push daily × 5 at maximum tolerated dose (M-Trex 4.0, MTX 1.0 mg/kg/day)
Source text: There are three general accepted methods for the evaluation of Pain in patients suffering from a number of diseases. They are Visual Analog Scale (VAS); Numeric rating Scale (NRS) and Verbal Categorical Rating Scale […]. Of these three assessment methods VAS is considered to be most reliable in a majority of cases to evaluate and quantify the magnitude of the perception of Pain. Clinical trials conducted by Castaneda and Nair used VAS to assess pain intensity in RA patients receiving 10-DAAM in one trial [G. Alarcon, O. Castaneda, W. J. Koopman, C. L. Krumdieck, and M. G. Nair. U.S. Pat. No. 5,030,634 (1991)] and M-Trex (CH-1504) in another trial conducted separately. Almost all cases of cancer Pain is due to tissue inflammation, tissue compression and tissue damage secondary to rapid proliferation of cells. Therefore any therapeutic intervention that shrinks proliferating tissues can bring about significant reduction in Pain. Shown below is the efficacy of M-Trex in shrinking human colon cancer transplanted and growing in nude mice.

[3] = test system: CAKI-1 (Renal Cancer); assay: Growth inhibition of human tumor cells in culture (NCI); type: cell-based
Source text: (§1) The preceding data collected at the National Cancer Institute summarize the ability of M-Trex to inhibit 50% of the growth of selected tumor cells in culture. The values are expressed as Log10 GI50 values all of which are lower than 10^−8M. In the same table a comparison is made of the respective values of TGI (Total Growth Inhibition) for M-Trex and MTX. […] In addition, the Log10 GI50 values of M-Trex was lower than −8.00 for the following cell lines: NSCLC, A549/ATCC and NCI H23; Colon Cancer, HCT 116, HCT 29 and SW 620; CNS Cancer, SF 268; Melanoma M 14 and UACC 62; Ovarian Cancer, OVCAR-8; Renal Cancer, ACHN, CAKI-1, SN 12C, and UO 31; Prostate Cancer, PC 3 and Breast cancer, MDA-MB-435 and MDA-N. The MG_MID value of MTX for all 49 human tumor cell lines evaluated at NCI-DTP program was −7.05. […] The tumors and sarcomas are solid while leukemia and lymphoma are liquid tumors.

[4] = test system: CCRF-CEM (Leukemia); assay: as above; type: cell-based
Source text: as §1

[5] = test system: HCT 116 (Colon Cancer); assay: as above; type: cell-based
Source text: as §1

[6] = test system: M 14 (Melanoma); assay: as above; type: cell-based
Source text: as §1

[7] = test system: MCF7-ADR-RES (Breast Cancer); assay: as above; type: cell-based
Source text: as §1

[8] = test system: MDA-MB-435 (Breast cancer); assay: as above; type: cell-based
Source text: as §1

[9] = test system: MDA-N (Breast cancer); assay: as above; type: cell-based
Source text: as §1

[10] = test system: MOLT-4 (Leukemia); assay: as above; type: cell-based; details: logarithmic value
Source text: as §1

[11] = test system: NCI H23 (NSCLC); assay: as above; type: cell-based
Source text: as §1

[12] = test system: OVCAR-8 (Ovarian Cancer); assay: as above; type: cell-based
Source text: as §1

[13] = test system: SF 268 (CNS Cancer); assay: as above; type: cell-based
Source text: as §1

[14] = test system: SN 12C (Renal Cancer); assay: as above; type: cell-based
Source text: as §1

[15] = test system: SW 620 (Colon Cancer); assay: as above; type: cell-based
Source text: as §1

[16] = test system: UO 31 (Renal Cancer); assay: as above; type: cell-based
Source text: as §1

[17] = test system: Allergic Rabbits; details: allergen induced; cited from earlier work

C=C(CC(NC(=O)c1ccc(CCc2ccc3nc(N)nc(N)c3c2)cc1)C(=O)O)C(=O)O (centres unmarked) [M-Trex, 4′-methylene-5,8-10-trideazaaminopterin]
CREATININE ([1]; VISIT 2): 0.79 mg/dL
GLUCOSE ([1]; VISIT 2): 83.8 mg/dL
SGOT ([1]; VISIT 2): 14.6 U/L
ALK. PHOSPHAT ([1]; VISIT 2): 107.75
SGTP ([1]; VISIT 2): 17.75
HEMOGLOB ([1]; VISIT 2): 11.77
CREATININE ([1]; VISIT 3): 0.95 mg/dL
GLUCOSE ([1]; VISIT 3): 95 mg/dL
SGOT ([1]; VISIT 3): 16 U/L
ALK. PHOSPHAT ([1]; VISIT 3): 86
SGTP ([1]; VISIT 3): 17
HEMOGLOB ([1]; VISIT 3): 12.43
CREATININE ([1]; VISIT 4): 0.85 mg/dL
GLUCOSE ([1]; VISIT 4): 87.5 mg/dL
SGOT ([1]; VISIT 4): 16 U/L
ALK. PHOSPHAT ([1]; VISIT 4): 89.3
SGTP ([1]; VISIT 4): 25
HEMOGLOB ([1]; VISIT 4): 12.18
CREATININE ([1]; VISIT 5): 0.85 mg/dL
GLUCOSE ([1]; VISIT 5): 88.1 mg/dL
SGOT ([1]; VISIT 5): 17.3 U/L
ALK. PHOSPHAT ([1]; VISIT 5): 87.1
SGTP ([1]; VISIT 5): 20
HEMOGLOB ([1]; VISIT 5): 12.26
CREATININE ([1]; VISIT 6): 0.92 mg/dL
GLUCOSE ([1]; VISIT 6): 92.4 mg/dL
SGOT ([1]; VISIT 6): 14.9 U/L
ALK. PHOSPHAT ([1]; VISIT 6): 85.42
SGTP ([1]; VISIT 6): 18.21
HEMOGLOB ([1]; VISIT 6): 12.56
CREATININE ([1]; VISIT 7): 0.84 mg/dL
GLUCOSE ([1]; VISIT 7): 90.3 mg/dL
SGOT ([1]; VISIT 7): 15.2 U/L
ALK. PHOSPHAT ([1]; VISIT 7): 86.5
SGTP ([1]; VISIT 7): 18
HEMOGLOB ([1]; VISIT 7): 12.48
Toxicity according to laboratory values ([1]; patients with Rheumatoid Arthritis): not associated with any measurable toxicity
MTGI, Maximum Tumor Growth Inhibition (% of control) ([2]; nude mice, HCT-8 xenograft): 91.4 ± 2.2%
Tumor doubling time, treated/control (%) ([2]; nude mice, HCT-8 xenograft): 623.08%
TD, Tumor Doubling Time ([2]; control 2.6 ± 0.8 days): 16.2 ± 3.2 days
Log10 GI50 [3]: lower than −8.00
TGI (Total Growth Inhibition) ([4]; logarithmic value): <−8.00
Log10 GI50 ([4]; value is Log10 of GI50): <−8.00 M
Log10 GI50 [5]: lower than −8.00
Log10 GI50 [6]: lower than −8.00
TGI (Total Growth Inhibition) ([7]; logarithmic value): −7.26
Log10 GI50 ([7]; value is Log10 of GI50): <−8.00 M
Log10 GI50 [8]: lower than −8.00
Log10 GI50 [9]: lower than −8.00
TGI (Total Growth Inhibition) [10]: −7.40
Log10 GI50 [11]: lower than −8.00
Log10 GI50 [12]: lower than −8.00
Log10 GI50 [13]: lower than −8.00
Log10 GI50 [14]: lower than −8.00
Log10 GI50 [15]: lower than −8.00
Log10 GI50 [16]: lower than −8.00
Asthmatic Response Early [17]: 52
Asthmatic Response Late [17]: 58
BHR (Bronchial Hyper-Responsiveness) [17]: 47
